Measured values reported in EP4671239A1, “ARYL SUBSTITUENT-CONTAINING DEGRADATION AGENT FOR CDK12/13, PREPARATION METHOD THEREFOR, AND PHARMACEUTICAL COMPOSITION AND USE THEREOF” (Shanghai Institute of Organic Chemistry, Chinese Academy of …, priority 2023, dated 2024).
Like-named read-outs stand apart in the source and are kept apart here. Values belong to the compound of their own block, whether it stands above or below them.

What was measured:
[1] = Pharmacokinetics and bioavailability test in rats (Example 57); assay type: in vivo; conditions: SD rats; for MRT last: read-out: MRT(0-t); for MRT inf: read-out: MRT(0-∞)
Experimental: (§1) Pharmacokinetics and bioavailability tests in rats. SD rats were given a single oral (10 mg/kg), intravenous (2.5 mg/kg) and intraperitoneal (10 mg/kg) dose, followed by animal blood sample collection at appropriate time points. Heparin was added for anticoagulation, and the samples were centrifuged at 8000 rpm for 6 min. The supernatant was collected and stored at -20°C for HPLC-MS analysis. The blood samples underwent protein precipitation with acetonitrile at 12 000 rpm * 10 min, and the supernatant was used for HPCL-MS analysis. The data underwent parameter fitting with DAS2.0, to obtain compartmental model and non-compartmental model parameters, respectively. The oral bioavailability of the compounds was calculated based on the area under the plasma concentration-time curve (AUC) data. […] Table 1. Pharmacokinetic experimental results of compound zlc-4-93

CDK12 and CDK13 proteins [2] = assay: Degradation activity on CDK12/13 in MDA-MB-231 cells (Western Blot); assay type: cell-based; conditions: 0.1µM or 0.3µM, 15 h, WB (FIG. 1)
Experimental: Experimental methods: The cell line MDA-MB-231 was purchased from the American Type Culture Collection (ATCC). Conventional Western Blot was used for detection, as follows: MDA-MB-231 cells were seeded at a density of 2 x 10^5/mL in a 12-well plate, with 1 mL per well, and cultured overnight in an incubator in an adherent manner. Then, a certain concentration of compounds was added to act for 15 h. The cells were lysed with a lysis buffer, and protein samples were collected. An appropriate amount of the sample was taken for SDS-PAGE electrophoresis. After electrophoresis, the protein was transferred to a polyvinylidene fluoride (PVDF) membrane using a wet electro-transfer system. The PVDF membrane after electro-transfer was cut into several required strips, which were then placed in a blocking solution (5% skim milk powder diluted in TBS containing 0.1% Tween 20) and blocked at room temperature for 1.5 h. A primary antibody solution was prepared by diluting a primary antibody against the corresponding target protein in TBS containing 0.1% Tween 20 according to the dilution requirements of different antibodies, such as 1:1000 (CST), 1:3000 (Proteintech, Bethyl), and 1:200 (Santacruz). The blocked membrane was placed in the corresponding primary antibody solution and incubated at 4°C for 12-14 h. Then, the cells were washed three times with TBS containing 0.1% Tween 20, each time for 5 min. After washing, the membrane was placed in a secondary antibody solution (horseradish peroxidase-labeled goat anti-rabbit IgG, diluted at 1:2000 in TBS containing 0.1% Tween 20) and reacted at room temperature for 2 h. After washing the membrane three times as above, the membrane was developed with StarSignal plus reagent (GenStar®) and Omni-ECL reagent (Yazyme®), and photographed with Amersham Imager 800 system.

[3] = Pharmacokinetics and bioavailability test in rats (Example 60); assay type: in vivo; conditions: SD rats; for F: bioavailability calculated from AUC; for oral pharmacokinetic properties: summary in words of Tables 2-6; for Cmax / Tmax / clearance / half-life: rat
Experimental: as §1, with “2.” for “1.”, “compounds YJZ9069 and YJZ1102” for “compound zlc-4-93”

[4] = tested on: prostate cancer VCap cells; assay: Proliferation-inhibiting activity on VCap cells (CellTiter-Glo); assay type: cell-based; conditions: Homo sapiens; VCap cell line, CellTiter-Glo (FIG. 6)
Experimental: The cell proliferation-inhibiting activity of the compounds was determined using the CellTiter-Glo Luminescent Cell Viability Assay (Promega, Madison, WI). The cells were seeded in a 96-well plate in their respective culture media and incubated at 37°C in a 5% CO2 incubator. After overnight incubation, serial dilutions of the compounds were prepared and added to the 96-well plate. A volume of CellTiter-Glo reagent equal to the volume of the cell culture medium present in each well was added (e.g., 100 microliters of the reagent was added to 100 microliters of the culture medium for the cells in the 96-well plate). The contents were mixed on an orbital shaker for 2 min to induce cell lysis. The 96-well plate was incubated at room temperature for 10 minutes to stabilize a luminescent signal. Luminescence was recorded: the luminescence signal of each well was acquired using an Infinite M1000 Pro plate reader (Tecan, Zürich, Switzerland), and the data were analyzed using GraphPad Prism software (GraphPad Software Inc, La Jolla, CA).

CDK12 and CDK13 proteins [5] = assay: Degradation activity on CDK12/13 in 22RV1 cells (Western Blot); assay type: cell-based; conditions: for degradation of CDK12 and CDK13 protein levels in cells / degradation of CDK12 and CDK13 proteins / dose dependence of degradation of CDK12 and CDK13 proteins: 22RV1 cells; for degradation of CDK12 and CDK13 protein levels in cells: 500 nM, 6 hours, WB (FIG. 4); for degradation of CDK12 and CDK13 proteins: 100 nM, 6 h (FIG. 5); for dose dependence of degradation of CDK12 and CDK13 proteins: different concentrations, 6 h (FIG. 4B, FIG. 5); for induction of degradation of CDK12 and CDK13 proteins: cell line and concentration not given there
Experimental: Experimental methods: The cell line, 22RV1 cell line was purchased from the American Type Culture Collection (ATCC). Conventional Western Blot was used for detection as follows: 22RV1 cells were seeded in a certain number in a 12-well plate, and cultured overnight in an incubator in an adherent manner. […] The cells were lysed with a lysis buffer, and samples were collected. Then, an appropriate amount of the samples was taken for SDS-PAGE electrophoresis. After electrophoresis, the proteins were transferred to nitrocellulose membranes using a semi-dry electro-transfer system. The nitrocellulose membrane was placed in a blocking solution (5% skim milk powder diluted in TBS containing 0.1% Tween 20) and blocked at room temperature for 2 h. The membranes were then placed in a primary antibody solution (1: 1000 diluted in TBS containing 0.1% Tween 20), respectively, and incubated at 4°C overnight. The cells were washed three times with TBS containing 0.1% Tween 20, each time for 15 min. The membrane was placed in a secondary antibody solution (horseradish peroxidase-labeled goat anti-rabbit IgG, diluted at 1:1000 in TBS containing 0.1% Tween 20) and reacted at room temperature for 1 h. After washing the membrane three times as above, the membrane was developed with ECL plus reagent and photographed using Amersham Imager 600 system.

[6] = Sprague-Dawley, rat, plasma, iv, i.v. 2.5 mg/kg
[7] = Sprague-Dawley, rat, plasma, Oral 10 mg/kg
[8] = Sprague-Dawley, plasma, IV 2.5 mg/kg
[9] = Sprague-Dawley, plasma, PO 10 mg/kg

F ([1]; Oral 10 mg/kg, bioavailability calculated from AUC): 16.46% | oral pharmacokinetic properties ([1]; summary in words of Table 1): excellent | AUC(0-inf) [1, 6]: 4740 ng·h/mL | AUC(0-t) [1, 6]: 4720 ng·h/mL | Cmax [1, 6]: 2590 ng/mL | Tmax [1, 6]: 0.08 h | clearance [1, 6]: 9.85 mL/min/kg | half-life [1, 6]: 2.38 h | MRT last [1, 6]: 2.37 h | MRT inf [1, 6]: 2.44 h | AUC(0-inf) [1, 7]: 3130 ng·h/mL | AUC(0-t) [1, 7]: 3110 ng·h/mL | Cmax [1, 7]: 308 ng/mL | Tmax [1, 7]: 4 h | half-life [1, 7]: 3.04 h | MRT last [1, 7]: 6.06 h | MRT inf [1, 7]: 6.19 h
SMILES: N#Cc1ccc(N[C@H]2CC[C@H](N(C(=O)NCc3ccccc3)c3ccc(N4CCN(C5CCN(c6ccc7c(c6)C(=O)N(C6CCC(=O)NC6=O)C7=O)CC5)CC4)cc3)CC2)nc1 (some centres unmarked) [zlc-4-93]

SMILES: N#Cc1ccc(N[C@H]2CC[C@H](N(C(=O)NCc3ccccc3)c3ccc(N4CCC5(CC4)CN(c4ccc6c(c4)C(=O)N(C4CCC(=O)NC4=O)C6=O)C5)cc3)CC2)nc1 (some centres unmarked) [ZLC6-103]
degradation of CDK12 and CDK13 protein levels in cells (CDK12 and CDK13 proteins [2]): effectively degrade

SMILES: N#Cc1ccc(N[C@H]2CC[C@H](N(C(=O)NCc3ccccc3)c3ccc(N4CCC(CN5CC6(C5)CN(c5ccc7c(c5)C(=O)N(C5CCC(=O)NC5=O)C7=O)C6)CC4)cc3)CC2)nc1 (some centres unmarked) [ZLC6-37]
degradation of CDK12 and CDK13 protein levels in cells (CDK12 and CDK13 proteins [2]): effectively degrade

SMILES: O=C1CCC(N2C(=O)c3ccc(N4CCC(N5CCN(c6ccc(N(C(=O)NCc7ccccc7)[C@H]7CC[C@H](Nc8ncc9ccccc9n8)CC7)cc6)CC5)CC4)cc3C2=O)C(=O)N1 (some centres unmarked) [YJZ1105, 3-benzyl-1-(4-(4-(1-(2-(2,6-dioxopiperidin-3-yl)-1,3-dioxoisoindol-5-yl)piperidin-4-yl)-piperazin-1-yl)phenyl)-1-((1r,4r)-4-(quinazolin-2-ylamino)cyclohexyl)urea]
F ([3]; PO 10 mg/kg): 26.64% | oral pharmacokinetic properties [3]: excellent | Cmax [3, 8]: 1390 ng/mL | Tmax [3, 8]: 0.08 h | clearance [3, 8]: 4.8 mL/min/kg | half-life [3, 8]: 7.05 h | Cmax [3, 9]: 625 ng/mL | Tmax [3, 9]: 6 h | half-life [3, 9]: 7.2 h | IC50 [4]: 15.1 nM | degradation of CDK12 and CDK13 protein levels in cells (CDK12 and CDK13 proteins [5]): effectively degrade

SMILES: O=C1CCC(N2C(=O)c3ccc(N4CCN(C5CCN(c6ccc(N(C(=O)NCc7ccccc7)[C@H]7CC[C@H](Nc8ncc9ccccc9n8)CC7)cc6)CC5)CC4)cc3C2=O)C(=O)N1 (some centres unmarked) [YJZ1202, 3-benzyl-1-(4-(4-(2-(2,6-dioxopiperidin-3-yl)-1,3-dioxoisoindole-5-yl)piperazin-1-yl)piperidin-1-ylphenyl)-1-((1r,4r)-4-(quinazolin-2-ylamino)cyclohexyl)urea]
F ([3]; PO 10 mg/kg): 13.51% | oral pharmacokinetic properties [3]: excellent | Cmax ([3]; in vivo, IV 2.5 mg/kg): 2310 ng/mL | Tmax ([3]; in vivo, IV 2.5 mg/kg): 0.08 h | clearance ([3]; in vivo, IV 2.5 mg/kg): 6.7 mL/min/kg | half-life ([3]; in vivo, IV 2.5 mg/kg): 4.13 h | Cmax ([3]; in vivo, PO 10 mg/kg): 291 ng/mL | Tmax ([3]; in vivo, PO 10 mg/kg): 5.33 h | half-life ([3]; in vivo, PO 10 mg/kg): 3.76 h | IC50 [4]: 17.5 nM | degradation of CDK12 and CDK13 proteins (CDK12 and CDK13 proteins [5]): almost completely degrade | degradation of CDK12 and CDK13 protein levels in cells (CDK12 and CDK13 proteins [5]): effectively degrade | dose dependence of degradation of CDK12 and CDK13 proteins (CDK12 and CDK13 proteins [5]): dose-dependent manner

SMILES: N#Cc1ccc(N[C@H]2CC[C@H](N(C(=O)NCc3ccccc3)c3ccc(N4CCN(C[C@@H]5CCN(c6ccc7c(c6)C(=O)N(C6CCC(=O)NC6=O)C7=O)C5)CC4)cc3)CC2)nc1 (some centres unmarked) [ZLC5-106]
degradation of CDK12 and CDK13 protein levels in cells (CDK12 and CDK13 proteins [2]): effectively degrade

SMILES: O=C1CCC(N2C(=O)c3cccc(NCCCCCCCCCC(=O)N4CCN(c5cccc(N(C(=O)NCc6ccccc6)[C@H]6CC[C@H](Nc7ncc8ccccc8n7)CC6)c5)CC4)c3C2=O)C(=O)N1 (some centres unmarked) [YJZ9055]
IC50 [4]: 2200 nM | induction of degradation of CDK12 and CDK13 proteins (CDK12 and CDK13 proteins [5]): cannot effectively induce degradation

SMILES: N#Cc1ccc(N[C@H]2CC[C@H](N(C(=O)NCc3ccccc3)c3ccc(N4CCC(CN5CCN(c6ccc7c(c6)C(=O)N(C6CCC(=O)NC6=O)C7=O)CC5)CC4)cc3)CC2)nc1 (some centres unmarked) [ZLC6-42]
degradation of CDK12 and CDK13 protein levels in cells (CDK12 and CDK13 proteins [2]): effectively degrade

SMILES: N#Cc1ccc(N[C@H]2CC[C@H](N(C(=O)NCc3ccccc3)c3ccc(N4CCN(CC5CN(c6cc7c(cc6F)C(=O)N(C6CCC(=O)NC6=O)C7=O)C5)CC4)cc3)CC2)nc1 (some centres unmarked) [ZLC7-36]
degradation of CDK12 and CDK13 protein levels in cells (CDK12 and CDK13 proteins [2]): effectively degrade

SMILES: CN1C(=O)CCC(N2C(=O)c3cccc(OCC(=O)N4CCN(c5ccc(N(C(=O)NCc6ccccc6)[C@H]6CC[C@H](Nc7ncc8ccccc8n7)CC6)cc5)CC4)c3C2=O)C1=O (some centres unmarked) [YJZ1078]
IC50 [4]: > 5000 nM | induction of degradation of CDK12 and CDK13 proteins (CDK12 and CDK13 proteins [5]): cannot effectively induce degradation

SMILES: O=C1CCC(N2C(=O)c3cc(F)c(N4CCC(N5CCN(c6ccc(N(C(=O)NCc7ccccc7)[C@H]7CC[C@H](Nc8ncc9ccccc9n8)CC7)cn6)CC5)CC4)cc3C2=O)C(=O)N1 (some centres unmarked) [YJZ1206]
F ([3]; PO 10 mg/kg): 39.16% | oral pharmacokinetic properties [3]: excellent | Cmax [3, 8]: 3120 ng/mL | Tmax [3, 8]: 0.08 h | clearance [3, 8]: 4.29 mL/min/kg | half-life [3, 8]: 5.15 h | Cmax [3, 9]: 1130 ng/mL | Tmax [3, 9]: 6 h | half-life [3, 9]: 6.24 h | degradation of CDK12 and CDK13 proteins (CDK12 and CDK13 proteins [5]): almost completely degrade | degradation of CDK12 and CDK13 protein levels in cells (CDK12 and CDK13 proteins [5]): effectively degrade | dose dependence of degradation of CDK12 and CDK13 proteins (CDK12 and CDK13 proteins [5]): dose-dependent manner
